By IC50 is commonly meant the midpoint of a concentration-inhibition curve.

The test system of assay [1] is Hh signaling pathway (Gli-luc reporter, NIH3T3 cells). As to the kind of experiment: NIH3T3-Gli-luciferase reporter assay (Gli-Luc dual luciferase). Particulars: NIH3T3 cells transfected with Gli luciferase reporter, stimulated with 10 nM SAG, 24 h, average of triplicate separate determinations. The class given is cell-based, Mouse. How it is done: In the Hh signaling pathway activity test, we used the Gli-Luc double luciferase detection system, which is widely used to test the inhibitory activity of the Hh signaling pathway. […]
3.3.1. NIH3T3-Gli-Luciferase Reporter Assay
NIH3T3 cells (Chinese Academy of Sciences cell bank, Mouse embryonic fibroblast cell line) were grown in Dulbecco’s Modified Eagle Media (DMEM) media supplemented with 10% fetal bovine serum (FBS) at 37 °C with a humidified 5% CO2 atmosphere.
NIH3T3 cells were plated one day before transfection. To prepare NIH3T3 cells, enough cells were collected to complete the transfection experiment, and centrifuged for 5 min at 300× g. The cell pellet was resuspended to an appropriate concentration in DMEM media with 0.5% FBS, then 5000 cells were plated in 100 μL per well of a 96-well plate.
The NIH3T3 cells were transfected with the Glioma-associated oncogene (GLI)-reporter, negative control, and positive control constructs (QIAGEN, Cat# CCS-6030L) by using Fugene HD transfection reagents (Promega, Cat. No. E2311, Madison, WI). The FuGENER HD Transfection Reagent/DNA mixture was incubated for 15 min at room temperature. A total of 10 μL of the FuGENER HD Transfection Reagent/DNA mixture was added per well to the 96-well plate containing 100 μL cells in growth medium. The mixture was mixed gently using a plate shaker. Cells were returned to the incubator for 24–48 h. Transfection efficiency was estimated by observing green fluorescent protein (GFP) expression in the positive control wells by fluorescence microscopy.
[…] Cells were incubated with SAG and compounds for 24 h. To study the effect of test compounds, cells were harvested 24 h after treatment to perform the dual-luciferase assay.
Dual-Luciferase assays were conducted using the Dual-Luciferase® Assay System (Promega, Cat# E1910) according to Promega’s protocol. Each system included: 5X Passive Lysis Buffer (PLB), Luciferase Assay Buffer II, Luciferase Assay Substrate, and 50X Stop & Glo® Substrate and Stop & Glo® Buffer.
After 24 h treatment, the assay medium was removed and cells were washed with PBS buffer, and then 20 μL of 1XPLB was added to each well. The culture plates were incubated on a plate shaker with gentle shaking at room temperature for 15 min. A total of 100 μL LARII was added to each well, and the firefly luciferase luminescence signal was measured using an EnVision® 2104 Multilabel Reader (PerkinElmer, Waltham, MA, USA), with a measure time of 10s. A total of 100 μL Stop & Glo® Reagent was added to each well, and Renilla luciferase luminescence signal was measured using an EnVision® 2104 Multilabel Reader (PerkinElmer); the measure time was 10 s.
Relative Luciferase Units (RLU) Calculation
Firefly: Renilla activity ratios were generated from experimental and control transfections. Ratios from transcription factor-responsive reporter transfections were divided by ratios from negative control transfections to obtain relative luciferase units. […]
The histogram of % inhibition of compounds was generated by using GraphPad Prism 5.0 software (GraphPad Software Inc., La Jolla, CA, USA).
(Reporter assays use an easily measured gene product as a stand-in for the process of interest.)

In the next assay the target is T1, human Smo (Homo sapiens, UniProt Q99835).
T1 construct: HA; expressed in transfected cells; host or cells: HEK293
Description: hSmo BODIPY-cyclopamine competitive binding assay. Particulars: inhibition of BODIPY-cyclopamine fluorescence, competitive displacement, HEK 293 cells over-expressing human Smo; single IC50 determination; read-out: Smo-BCB IC50. The method, then: To determine whether the Hh inhibitory activities of the target compounds were derived from their inhibition to the Smo receptor, a binding assay was used.
3.3.2. Hsmo-BC Binding Assay
BODIPY-cyclopamine binding assay is a fluorescence-based assay used to analyze the binding of Smo agonists/antagonists. HEK293 cells were transfected with pCMV-HA/hSmo using Lipofectamine reagent (Lipofectamine™ 2000, Invitrogen, Carlsbad, CA, USA). Briefly, 50 μL of Lipofectamine 2000 and 22.5 μg of pCMV-HA/hSmo were each incubated in 1.5 mL of Opti-MEMI media (Invitrogen) at room temperature for 30 min and then was added to 1 × 10^6 HeK293 cells in 25 mL of culture medium in a 75 cm^2 cell culture flask. After overnight incubation under 5% CO2 at 37 °C, cells were detached using Versene (Invitrogen) and resuspended in culture medium. The suspended cells were added to a 96-well plate at 10,000 cells/well. After removing the media from each well, the cells were fixed with 4% paraformaldehyde (PFA) for 20 min at room temperature. Then the PFA buffer was removed, and the cells were incubated with 4′,6-diamidino-2-phenylindole (DAPI) ([…]) for 10 min, followed by washing with PBS four times. […] After incubation, the cells were washed five times with PBST (PBS buffer supplied with 0.05% Tween-20). The fluorescence images were automatically captured and analyzed by a high content fluorescence imaging system (Arrayscan VTI, Thermo, Waltham, MA, USA). Data was expressed as a percentage of fluorescence intensity observed with BODIPY-cyclopamine alone. […] IC50 values were calculated with GraphPad Prism software using the sigmoidal dose-response function.

T1 sequence (Q99835 28-787): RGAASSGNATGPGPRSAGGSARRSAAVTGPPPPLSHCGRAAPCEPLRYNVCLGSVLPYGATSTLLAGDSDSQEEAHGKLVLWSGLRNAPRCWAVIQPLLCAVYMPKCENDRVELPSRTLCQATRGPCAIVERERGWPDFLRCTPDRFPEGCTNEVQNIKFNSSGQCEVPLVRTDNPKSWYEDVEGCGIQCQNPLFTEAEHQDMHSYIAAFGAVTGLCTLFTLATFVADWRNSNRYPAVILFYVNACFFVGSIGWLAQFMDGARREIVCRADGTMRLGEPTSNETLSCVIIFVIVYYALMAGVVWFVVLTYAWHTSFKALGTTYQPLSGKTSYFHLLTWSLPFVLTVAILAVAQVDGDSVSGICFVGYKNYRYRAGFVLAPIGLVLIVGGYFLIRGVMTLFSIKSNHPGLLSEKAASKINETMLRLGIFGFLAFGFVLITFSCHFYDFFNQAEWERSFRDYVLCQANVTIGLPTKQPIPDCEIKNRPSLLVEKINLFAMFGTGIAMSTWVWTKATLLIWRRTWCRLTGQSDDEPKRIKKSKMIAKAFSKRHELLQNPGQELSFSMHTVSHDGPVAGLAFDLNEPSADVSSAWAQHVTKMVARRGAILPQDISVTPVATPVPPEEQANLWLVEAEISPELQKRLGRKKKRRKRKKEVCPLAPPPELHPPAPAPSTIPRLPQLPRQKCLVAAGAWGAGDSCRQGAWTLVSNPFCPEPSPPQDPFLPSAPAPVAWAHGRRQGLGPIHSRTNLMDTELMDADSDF

Take “3-Methoxy-N-(3-(4-(4-methylpiperazine-1-carbonyl)piperidin-1-yl)phenyl)benzamide [Compound 5j]”: it took 4.74 ± 0.02 µM to reach half-maximal inhibition in assay [1] (IC50).

As for “3-Methyl-N-(3-(4-(4-methylpiperazine-1-carbonyl)piperidin-1-yl)phenyl)benzamide [Compound 5i]”, the IC50 in assay [1] was 16.32 ± 0.05 µM.

As for `CN1CCN(C(=O)C2CCN(c3cccc(NC(=O)c4ccccc4)c3)CC2)CC1` [Compound 5a, N-(3-(4-(4-Methylpiperazine-1-carbonyl)piperidin-1-yl)phenyl)benzamide], the IC50 in assay [1] (Mus musculus) stood at 28.52 ± 0.02 µM.

In assay [1] (Mus musculus), `CN1CCN(C(=O)C2CCN(c3cccc(NC(=O)c4ccc(Cl)cc4)c3)CC2)CC1` [Compound 5b, 4-Chloro-N-(3-(4-(4-methylpiperazine-1-carbonyl)piperidin-1-yl)phenyl)benzamide] yielded an IC50 of 12.47 ± 0.11 µM.

For the molecule `CN1CCN(C(=O)C2CCN(c3cccc(NC(=O)c4cccc(Cl)c4)c3)CC2)CC1` [Compound 5c, 3-Chloro-N-(3-(4-(4-methylpiperazine-1-carbonyl)piperidin-1-yl)phenyl)benzamide], in assay [1] (Mus musculus), inhibition was half-maximal at 14.63 ± 0.01 µM (IC50).

In assay [1] (Mus musculus), `CN1CCN(C(=O)C2CCN(c3cccc(NC(=O)c4ccc(F)cc4)c3)CC2)CC1` [Compound 5d, 4-Fluoro-N-(3-(4-(4-methylpiperazine-1-carbonyl)piperidin-1-yl)phenyl)benzamide] had an IC50 of 15.51 ± 0.03 µM.

The molecule `CN1CCN(C(=O)C2CCN(c3cccc(NC(=O)c4cccc(F)c4)c3)CC2)CC1` [Compound 5e, 3-Fluoro-N-(3-(4-(4-methylpiperazine-1-carbonyl)piperidin-1-yl)phenyl)benzamide] registered an IC50 in assay [1] (Mus musculus) of 17.59 ± 0.15 µM.

In assay [1] (Mus musculus), `CN1CCN(C(=O)C2CCN(c3cccc(NC(=O)c4cccc([N+](=O)[O-])c4)c3)CC2)CC1` [Compound 5f, N-(3-(4-(4-methylpiperazine-1-carbonyl)piperidin-1-yl)phenyl)-3-nitrobenzamide] came in with an IC50 of 53.34 ± 0.07 µM.

For `CN1CCN(C(=O)C2CCN(c3cccc(NC(=O)c4ccc([N+](=O)[O-])cc4)c3)CC2)CC1` [Compound 5g, N-(3-(4-(4-methylpiperazine-1-carbonyl)piperidin-1-yl)phenyl)-4-nitrobenzamide], in assay [1] (Mus musculus), the midpoint of inhibition, the IC50, lay at 60.56 ± 0.04 µM.

For the molecule `CN1CCN(C(=O)C2CCN(c3cccc(NC(=O)c4ccc(Br)cc4)c3)CC2)CC1` [Compound 5h, 4-Bromo-N-(3-(4-(4-methylpiperazine-1-carbonyl)piperidin-1-yl)phenyl)benzamide], the IC50 in assay [1] (Mus musculus) was 7.85 ± 0.01 µM.

`Cc1ccccc1C(=O)Nc1cccc(N2CCC(C(=O)N3CCN(C)CC3)CC2)c1` [Compound 5k, 2-Methyl-N-(3-(4-(4-methylpiperazine-1-carbonyl)piperidin-1-yl)phenyl)benzamide]: inhibition in assay [1] (Mus musculus) was half-maximal at 16.61 ± 0.12 µM (IC50).

Turning to `COc1cc(OC)cc(C(=O)Nc2cccc(N3CCC(C(=O)N4CCN(C)CC4)CC3)c2)c1` [Compound 5l, 3,5-Dimethoxy-N-(3-(4-(4-methylpiperazine-1-carbonyl)piperidin-1-yl)phenyl)benzamide], the IC50 in assay [1] (Mus musculus) was 1.83 ± 0.03 µM; on human Smo it was 2.41 ± 0.01 µM.

`CN1CCN(C(=O)C2CCN(c3cccc(NC(=O)c4ccccc4Br)c3)CC2)CC1` [Compound 5m, 2-Bromo-N-(3-(4-(4-methylpiperazine-1-carbonyl)piperidin-1-yl)phenyl)benzamide] yielded an IC50 in assay [1] (Mus musculus) of 10.49 ± 0.05 µM.

Regarding `CN1CCN(C(=O)C2CCN(c3cccc(NC(=O)c4cccnc4)c3)CC2)CC1` [Compound 5n, N-(3-(4-(4-methylpiperazine-1-carbonyl)piperidin-1-yl)phenyl)nicotinamide], the IC50 in assay [1] (Mus musculus) came to 5.32 ± 0.13 µM; on human Smo, 6.35 ± 0.07 µM.

For `CN1CCN(C(=O)C2CCN(c3cccc(NC(=O)c4ccc(S(C)(=O)=O)cc4Cl)c3)CC2)CC1` [Compound 5o, 2-Chloro-N-(3-(4-(4-methylpiperazine-1-carbonyl)piperidin-1-yl)phenyl)-4-(methylsulfonyl)benzamide], the IC50 in assay [1] (Mus musculus) stood at 4.28 ± 0.01 µM; at human Smo it was 6.23 ± 0.12 µM.

In assay [1] (Mus musculus), `CN1CCN(C(=O)C2CCN(c3cccc(NC(=O)c4ccc(S(C)(=O)=O)cc4)c3)CC2)CC1` [Compound 5p, N-(3-(4-(4-methylpiperazine-1-carbonyl)piperidin-1-yl)phenyl)-4-(methylsulfonyl)benzamide] showed a half-maximal inhibitory concentration (IC50) of 3.43 ± 0.08 µM.

`CN1CCN(C(=O)C2CCN(c3cccc(NC(=O)c4cccc(-c5ccccn5)c4)c3)CC2)CC1` [Compound 5q, N-(3-(4-(4-methylpiperazine-1-carbonyl)piperidin-1-yl)phenyl)-3-(pyridin-2-yl)benzamide]: the IC50 was determined as 1.26 ± 0.03 µM in assay [1] (Mus musculus) and 1.61 ± 0.02 µM at human Smo.

Turning to `CS(=O)(=O)N1CCN(C(=O)Cc2ccc(Cl)c(NC(=O)c3ccc(Cl)cc3)c2)CC1` [Compound 8a, 4-Chloro-N-(2-chloro-5-(2-(4-(methylsulfonyl)piperazin-1-yl)-2-oxoethyl)phenyl)benzamide], the IC50 in assay [1] (Mus musculus) worked out at 6.88 ± 0.13 µM.

In turn, `O=C(Nc1cc(CC(=O)N2CCN(S(=O)(=O)c3ccc(F)cc3)CC2)ccc1Cl)c1ccc(Cl)cc1` [Compound 8b, 4-Chloro-N-(2-chloro-5-(2-(4-((4-fluorophenyl)sulfonyl)piperazin-1-yl)-2-oxoethyl)phenyl)benzamide] had an IC50 in assay [1] (Mus musculus) of 12.7 ± 0.16 µM.

The molecule `CCCCS(=O)(=O)N1CCN(C(=O)Cc2ccc(Cl)c(NC(=O)c3ccc(Cl)cc3)c2)CC1` [Compound 8c, N-(5-(2-(4-(butylsulfonyl)piperazin-1-yl)-2-oxoethyl)-2-chlorophenyl)-4-chlorobenzamide] gave an IC50 in assay [1] (Mus musculus) of 8.62 ± 0.09 µM.

Molecule `COc1cc(C(=O)NC(=S)Nc2cccc(NC(=O)c3ccccc3)c2)cc(OC)c1OC` [MRT10, reference compound] registered an IC50 in assay [1] (Mus musculus) of 2.15 µM.

`CS(=O)(=O)c1ccc(C(=O)Nc2ccc(Cl)c(-c3ccccn3)c2)c(Cl)c1` [Vismodegib, reference compound] came in with an IC50 in assay [1] (Mus musculus) of 0.025 µM.

The values above are taken from article PMC6017536, “Synthesis and Smo Activity of Some Novel Benzamide Derivatives” (Molecules : A Journal of Synthetic Chemistry and Natural …, 2017).
